Source: PMC11003488 (Journal of Enzyme Inhibition and Medicinal Chemistry, 2023)
“And” between values parts separate entries of the source, which are not always exact repeats. Equal values may be shown once. Read-outs that look alike come from different tables or passages of the source.

Key:
K-562 = test: NCI-60 SRB growth inhibition, one-dose and five-dose; format: cell-based; conditions: Homo sapiens
MOLT-4 = test: as above; format: cell-based; conditions: Homo sapiens
EKVX = test: as above; format: cell-based; conditions: Homo sapiens
HOP-62 = test: as above; format: cell-based; conditions: Homo sapiens
NCI-H23 = test: as above; format: cell-based; conditions: Homo sapiens
NCI-H322M = test: as above; format: cell-based; conditions: Homo sapiens
NCI-H522 = test: as above; format: cell-based; conditions: Homo sapiens
HCC-2998 = test: as above; format: cell-based; conditions: Homo sapiens
SF-295 = test: as above; format: cell-based; conditions: Homo sapiens
SF-539 = test: as above; format: cell-based; conditions: Homo sapiens
LOX IMVI = test: as above; format: cell-based; conditions: Homo sapiens
SK-MEL-2 = test: as above; format: cell-based; conditions: Homo sapiens, SK-MEL-2, read-out: percent growth inhibition
SK-MEL-28 = test: as above; format: cell-based; conditions: Homo sapiens
UACC-257 = test: as above; format: cell-based; conditions: Homo sapiens
SK-OV-3 = test: as above; format: cell-based; conditions: Homo sapiens
RXF 393 = test: as above; format: cell-based; conditions: Homo sapiens
UO-31 = test: as above; format: cell-based; conditions: Homo sapiens, UO-31
PC-3 = test: as above; format: cell-based; conditions: Homo sapiens
MDA-MB-231/ATCC = test: as above; format: cell-based; conditions: Homo sapiens, MDA-MB-231
Leukaemia cell lines = test: NCI-60 SRB growth inhibition, subpanel; format: cell-based, human; conditions: Homo sapiens
NSCLC cell lines = test: NCI-60 SRB growth inhibition, subpanel; format: cell-based, human; conditions: for GI50: Homo sapiens
Colon cancer cell lines = test: NCI-60 SRB growth inhibition, subpanel; format: cell-based, human; conditions: for GI50: Homo sapiens
CNS cancer cell lines = test: NCI-60 SRB growth inhibition, subpanel; format: cell-based, human; conditions: for GI50: Homo sapiens
Melanoma cell lines = test: NCI-60 SRB growth inhibition, subpanel; format: cell-based, human; conditions: for GI50: Homo sapiens
[1] = test system: Ovarian cancer cell lines; test: NCI-60 SRB growth inhibition, subpanel; format: cell-based, human; conditions: for GI50: Homo sapiens
Renal cancer cell lines = test: NCI-60 SRB growth inhibition, subpanel; format: cell-based, human; conditions: for GI50: Homo sapiens
[2] = test system: Prostate cancer cell lines; test: NCI-60 SRB growth inhibition, subpanel; format: cell-based, human; conditions: for GI50: Homo sapiens
Breast cancer cell lines = test: NCI-60 SRB growth inhibition, subpanel; format: cell-based, human; conditions: for GI50: Homo sapiens
[3] = Cytotoxicity towards normal fibroblasts, safety index; format: cell-based, human; conditions: human, WI-38 normal fibroblast cells
[4] = test system: WI-38 normal human fibroblast cells; test: as above; format: cell-based; conditions: WI-38 versus cancer cell lines
Human VEGFR-2 = Human VEGFR-2 (Homo sapiens, UniProt P35968); test: VEGFR-2 inhibition assay; format: biochemical
HCT-116 (colon cancer) [5] = test: Apoptosis AV/PI assay by flow cytometry; format: cell-based, human; conditions: HCT-116, 24 h, IC50 of compound
HCT-116 (colon cancer) [6] = test: Cell cycle analysis by PI flow cytometry; format: cell-based, human; conditions: HCT-116, 24 h, IC50 of compound
Caspase-3 [7] = test: Protein level by ELISA assay in HCT-116; format: cell-based, human; conditions: HCT-116, IC50 of compound, 24 h, vs 0.1% DMSO
Bax [8] = test: Protein level by ELISA assay in HCT-116; format: cell-based, human; conditions: HCT-116, IC50 of compound, 24 h, vs 0.1% DMSO
Caspase-3 [9] = test: Gene expression by RT-qPCR in HCT-116; conditions: HCT-116, 24 h, IC50 of compound; vs 0.1% DMSO; 2^-ΔΔct
Bax [10] = test: Gene expression by RT-qPCR in HCT-116; conditions: HCT-116, 24 h
TNF-α = test: Gene expression by RT-qPCR in HCT-116; conditions: HCT-116, 24 h, IC50 of compound; vs 0.1% DMSO; 2^-ΔΔct
[11] = read-out: percent growth inhibition

Chain of Human VEGFR-2 (P35968 20-1356): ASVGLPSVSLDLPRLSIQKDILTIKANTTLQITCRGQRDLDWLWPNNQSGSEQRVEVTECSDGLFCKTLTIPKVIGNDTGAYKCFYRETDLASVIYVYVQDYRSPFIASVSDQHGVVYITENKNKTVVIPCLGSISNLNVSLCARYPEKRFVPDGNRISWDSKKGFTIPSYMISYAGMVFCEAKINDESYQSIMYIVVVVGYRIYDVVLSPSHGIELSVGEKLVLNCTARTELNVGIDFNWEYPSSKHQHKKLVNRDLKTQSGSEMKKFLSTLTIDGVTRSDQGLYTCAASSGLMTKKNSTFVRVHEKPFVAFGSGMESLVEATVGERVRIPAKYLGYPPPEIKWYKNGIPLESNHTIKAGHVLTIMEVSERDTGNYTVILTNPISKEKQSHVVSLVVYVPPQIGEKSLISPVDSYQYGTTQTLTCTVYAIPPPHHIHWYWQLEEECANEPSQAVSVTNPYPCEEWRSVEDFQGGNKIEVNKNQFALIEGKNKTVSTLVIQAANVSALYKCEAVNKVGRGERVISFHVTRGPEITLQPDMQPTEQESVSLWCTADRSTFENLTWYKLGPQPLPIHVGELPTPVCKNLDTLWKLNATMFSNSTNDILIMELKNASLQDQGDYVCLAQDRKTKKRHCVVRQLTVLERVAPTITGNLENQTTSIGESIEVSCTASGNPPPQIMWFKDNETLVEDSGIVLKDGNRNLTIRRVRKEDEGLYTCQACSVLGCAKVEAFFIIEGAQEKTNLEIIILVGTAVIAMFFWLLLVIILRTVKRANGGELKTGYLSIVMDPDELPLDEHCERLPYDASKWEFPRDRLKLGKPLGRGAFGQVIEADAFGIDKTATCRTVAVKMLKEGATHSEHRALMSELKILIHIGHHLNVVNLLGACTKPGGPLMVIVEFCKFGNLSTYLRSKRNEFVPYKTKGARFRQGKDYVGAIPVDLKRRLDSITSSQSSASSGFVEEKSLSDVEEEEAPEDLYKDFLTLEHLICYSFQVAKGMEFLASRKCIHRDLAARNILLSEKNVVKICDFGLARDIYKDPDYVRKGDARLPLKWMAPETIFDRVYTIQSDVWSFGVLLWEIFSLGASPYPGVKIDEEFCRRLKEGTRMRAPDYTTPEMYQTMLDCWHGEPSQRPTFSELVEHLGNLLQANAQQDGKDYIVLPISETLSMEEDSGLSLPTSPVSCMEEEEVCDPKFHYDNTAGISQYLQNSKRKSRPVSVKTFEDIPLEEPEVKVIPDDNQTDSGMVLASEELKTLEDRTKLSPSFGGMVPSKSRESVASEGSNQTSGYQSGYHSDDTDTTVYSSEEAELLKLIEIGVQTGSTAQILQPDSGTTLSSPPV

Compound `O=C(/C=C/c1cccnc1)c1cccc(NCc2ccc(CO)cc2)c1` [Compound 5e, (E)-1–(3-((4-(hydroxymethyl)benzyl)amino)phenyl)-3-(pyridin-3-yl)prop-2-en-1-one] has a GI50 (K-562; K562) of 2.75 µM, an inhibition at 10 µM (K-562; K562, read-out: percent growth inhibition) of 99.1% and a GI50 (MOLT-4; MOLT-4) of 2.69 µM. For the same compound, the inhibition at 10 µM (MOLT-4; MOLT-4, read-out: percent growth inhibition) was 120%, the GI50 (EKVX) was 13.7 µM and the inhibition at 10 µM (EKVX; [11]) was 56.8%. For the same compound, the GI50 (HOP-62; HOP-62) was 15 µM, the inhibition at 10 µM (HOP-62; HOP-62, read-out: percent growth inhibition) was 20.7% and the GI50 (NCI-H23; NCI-H23) was 12.9 µM. It also gave an inhibition at 10 µM (NCI-H23; NCI-H23, read-out: percent growth inhibition) of 79.3%, a GI50 (NCI-H322M) of 15 µM and an inhibition at 10 µM (NCI-H322M; [11]) of 18.6%. The GI50 (NCI-H522; NCI-H522) was 11.4 µM, the inhibition at 10 µM (NCI-H522; NCI-H522, read-out: percent growth inhibition) was 57.6% and the GI50 (HCC-2998; HCC 2998) was 5.6 µM. The inhibition at 10 µM (HCC-2998; HCC 2998, read-out: percent growth inhibition) was 190%, the GI50 (SF-295; SF-295) was 14.5 µM and the inhibition at 10 µM (SF-295; SF-295, read-out: percent growth inhibition) was 39.8%. It also gave a GI50 (SF-539; SF-539) of 14.5 µM, an inhibition at 10 µM (SF-539; SF-539, read-out: percent growth inhibition) of 98.5% and a GI50 (LOX IMVI) of 1.76 µM. The inhibition at 10 µM (LOX IMVI; [11]) was 197%, the inhibition at 10 µM (SK-MEL-2) was 17.7% and the GI50 (SK-MEL-28; SK-MEL-28) was 13.6 µM. The inhibition at 10 µM (SK-MEL-28; SK-MEL-28, read-out: percent growth inhibition) was 121%, the GI50 (UACC-257; UACC-257) was 14.7 µM and the inhibition at 10 µM (UACC-257; UACC-257, read-out: percent growth inhibition) was 61.4%. It also gave a GI50 (SK-OV-3; SK-OV-3) of 15.8 µM, an inhibition at 10 µM (SK-OV-3; SK-OV-3, read-out: percent growth inhibition) of 0.04% and a GI50 (RXF 393; RXF 393) of 13.7 µM. For the same compound, the inhibition at 10 µM (RXF 393; RXF 393, read-out: percent growth inhibition) was 121%, the GI50 (UO-31) was 11.2 µM and the GI50 (PC-3; PC-3) was 11.6 µM. The inhibition at 10 µM (PC-3; PC-3, read-out: percent growth inhibition) was 62.6%, the GI50 (MDA-MB-231/ATCC) was 3.75 µM and the GI50 (Leukaemia cell lines; read-out: GI50 MG-MID) was 3.29 µM. It also gave a GI50 (Leukaemia cell lines; read-out: MG-MID GI50) of 3.29 µM, a GI50 (NSCLC cell lines; read-out: GI50 MG-MID) of 13.6 µM and a GI50 (NSCLC cell lines; read-out: MG-MID GI50) of 13.6 µM. The “SI (Selectivity Index)” value (NSCLC cell lines; full panel MG-MID / NSCLC subpanel MG-MID) was 0.73, the GI50 (Colon cancer cell lines; read-out: GI50 MG-MID) was 6.42 µM and the GI50 (Colon cancer cell lines; read-out: MG-MID GI50) was 6.42 µM. The “SI (Selectivity Index)” value (Colon cancer cell lines; full panel MG-MID / Colon Cancer subpanel MG-MID) was 1.55, the GI50 (CNS cancer cell lines; read-out: GI50 MG-MID) was 12.2 µM and the GI50 (CNS cancer cell lines; read-out: MG-MID GI50) was 12.2 µM. For the same compound, the “SI (Selectivity Index)” value (CNS cancer cell lines; full panel MG-MID / CNS Cancer subpanel MG-MID) was 0.82, the GI50 (Melanoma cell lines; read-out: GI50 MG-MID) was 10.6 µM and the GI50 (Melanoma cell lines; read-out: MG-MID GI50) was 10.6 µM. The “SI (Selectivity Index)” value (Melanoma cell lines; full panel MG-MID / Melanoma subpanel MG-MID) was 0.94, the GI50 ([1]; read-out: GI50 MG-MID) was 11.2 µM and the GI50 ([1]; read-out: MG-MID GI50) was 11.2 µM. The “SI (Selectivity Index)” value ([1]; full panel MG-MID / Ovarian Cancer subpanel MG-MID) was 0.89, the GI50 (Renal cancer cell lines; read-out: GI50 MG-MID) was 13 µM and the GI50 (Renal cancer cell lines; read-out: MG-MID GI50) was 13 µM. The “SI (Selectivity Index)” value (Renal cancer cell lines; full panel MG-MID / Renal Cancer subpanel MG-MID) was 0.77, the GI50 ([2]; read-out: GI50 MG-MID) was 12.2 µM and the GI50 ([2]; read-out: MG-MID GI50) was 12.2 µM. The “SI (Selectivity Index)” value ([2]; full panel MG-MID / Prostatic Cancer subpanel MG-MID) was 0.82, the GI50 (Breast cancer cell lines; read-out: GI50 MG-MID) was 7.2 µM and the GI50 (Breast cancer cell lines; read-out: MG-MID GI50) was 7.2 µM. For the same compound, the “SI (Selectivity Index)” value (Breast cancer cell lines; full panel MG-MID / Breast Cancer subpanel MG-MID) was 1.38, the GI50 at 48 h [3] was over 100 µM and the Safety index [4] was over 1. For the same compound, the IC50 (Human VEGFR-2) was 0.37 ± 0.012 µM, the “% Early apoptotic cells (LR)” value (HCT-116 (colon cancer) [5]) was 0.05 ± 0.001% and the “% Late apoptotic cells (UL)” value (HCT-116 (colon cancer) [5]) was 94.74 ± 8.9%. For the same compound, the “% Necrotic cells (UR)” value (HCT-116 (colon cancer) [5]) was 2.71 ± 0.33%, the “% Viable cells (LL)” value (HCT-116 (colon cancer) [5]) was 2.50 ± 0.12% and the “% G0-G1” value (HCT-116 (colon cancer) [6]) was 30.02 ± 7.1%. For the same compound, the “% G2M” value (HCT-116 (colon cancer) [6]) was 10.42 ± 1.7%, the “% S” value (HCT-116 (colon cancer) [6]) was 10.55 ± 3.5% and the “% SubG0-G1” value (HCT-116 (colon cancer) [6]) was 49.01 ± 7.2%. The caspase-3 protein level (Caspase-3 [7]) was 58.44 fold, the Bax protein level (Bax [8]) was 3.14 fold and the “Caspase-3 gene expression fold change” value (Caspase-3 [9]) was 2.28 ± 0.14 fold. For the same compound, the “Bax gene expression fold change” value (Bax [10]; IC50 of compound, vs 0.1% DMSO, 2^-ΔΔct) was 5 fold and 5.00 ± 1.1 fold, the Bax/Bcl-2 ratio (Bax [10]; ratio of gene expression fold changes) was 4.5 and the “TNF-α gene expression fold change” value (TNF-α) was 372 fold and 372.22 ± 10.8 fold.
